Tests used:
[1] = system: primary human neutrophils; test: fMLP-induced human neutrophil chemotaxis; type: cell-based; details: for IC50: fMLP-induced chemotaxis, X marks this range, read-out: IC50 RANGE (μM) 10-100
Method: Chemotaxis buffer containing the chemoattractant fMLP (10 μM) was added to each well of a chemotaxis plate and a filter was inserted ensuring contact between the filter and the chemotaxis buffer in the well. A submaximal concentration of chemoattractant was used which had been determined in previous experiments. […] Freshly isolated neutrophils (1×10^6) were incubated with vehicle (0.125% DMSO)±test compound for 1 hr at 37° C. Treatment and control cell suspensions were then gently resuspended and 20 μL of cells was added to the top side of the filter on each well. The plate was incubated for 1.5 hours at 37° C. under 5% CO2. Cells were then removed from the top side of the filter by aspiration and the entire plate was centrifuged. The filter was removed and known concentrations of cells were added to unused wells to prepare a standard curve. XTT (Sigma; Catalogue No. X 4251)/PMS (Sigma; Catalogue No. P 7626) solution prepared in buffer was added to each well and the cells were further incubated 1-2 hours and measured for absorbance at 450 nm. Absorbance values were converted to cell numbers using the standard curve. IC50 values are averages from at least three separate experiments with triplicate determinations.

[2] = system: K562 chronic myelogenous leukemia cells; test: Anti-proliferative activity in K562 cells (3H-thymidine uptake); type: cell-based, human; details: for IC50: Homo sapiens, K562, 48 hours, 3H-thymidine, X marks this range, read-out: IC50 range (μM) >50
Method: 90 μL K562 cells (human chronic myelogenous leukemia cells) were seeded into sterile 96-well assay plates at a density of 1×10^5 cells/mL in RPMI 1640 supplemented with 10% FBS/2 mM L-glutamine. Samples to be tested were prepared in a sterile 96-well assay plate at 10×the final concentration desired. All sample dilutions contained equal amounts of DMSO to compensate for the % DMSO in the highest sample concentration used. Nine concentrations of test compound were examined for effects on growth up to a maximal concentration of 100 μM. 10 μL of the samples and controls (DMSO/normal growth control) were added to the aliquoted cells. The cells were incubated at 37° C./5% CO2 for 48 hours. Following 48 hour incubation, 20 μL of 3H-thymidine was added to each well for a final concentration of 1 μCi/mL. The cells were then incubated at 37° C./5% CO2 for 4 to 6 hours. Following 4-6 hour thymidine pulse, plates were wrapped in plastic and frozen in a −20° C. frost-free freezer overnight. Cells were harvested and ^3H-thymidine counts determined. In order to distinguish between cytotoxicity and cytostatic activity, growth curves were prepared where the average CPM value of the seeding density of cells was plotted on the same curve as the average CPM value for the maximum proliferation attained after 48 hours (DMSO growth control cells). The cells were diluted 1:2 for a concentration range of 7.8×10^3 cells/mL to 2×10^6 cells/mL. 90 μL of each cell dilution was seeded in sterile 96-well assay plated and allowed to equilibrate for approximately 4 hours at 37° C./5% CO2 prior to ^3H-thymidine pulse. The data in Table 15 was obtained as described above, and more specifically, K562 cells were seeded into 96-well plates at 1×10^5 cells/mL in RPMI 1640 supplemented with 10% FBS/2 mM L-glutamine. Various concentrations of test compound or vehicle (DMSO) was added and the cells were incubated at 37° C./5 CO2 for 48 hours. The cells were then pulsed at 37° C./5% CO2 for 4 to 6 hours with 1 μCi/mL ^3H-thymidine. Radioactivity incorporated into DNA was determined after harvesting onto glass fiber filters and scintillation counting.

naive CD4+ T-cells = test: Naive CD4+ T-cell proliferation (AND-TCR transgenic); type: cell-based, mouse
Method: AND-TCR transgenic mice (Kaye J. et al., Nature 341:746-749, 1989) were used to provide a source of naive-antigen specific CD4+T cells. The AND-T cell antigen receptor recognizes a peptide derived from pigeon cytochrome C (pcc) in the context of the I-E^k class II MHC molecule.
To examine the role of a test compound in naive CD4 T cell activation and proliferation, 1×10^5 AND-lymph node T cells were cultured with 1×10^6 irradiated B10.BR spleen cells in the presence of varying concentrations of pcc peptide (0-10 μM) in 96 well plates. Proliferation was assessed by ^3H thymidine incorporation. All assay conditions were conducted in triplicate. Cell surface activation phenotype of T cells was assessed by flow cytometric analysis.

Compound COc1cc(C[C@@H]2CC(c3ccc(OC)c(OC)c3)COC2=O)ccc1O (mixture of isomers) [Compound 12] has an IC50 [1] of 10 to 100 µM.
Work on COc1cc(C[C@@H]2C[C@@H](c3ccc(OC)c(OC)c3)COC2=O)ccc1O [Compound 30] yielded an IC50 [1] of 10 to 100 µM.
For COc1ccc([C@@H]2CCC(=O)OC2)cc1OC1CCCC1 [Compound 41], the IC50 [2] was > 50 µM.
For COc1cc(CC2C[C@@H](c3ccc(OC)c(OC4CCCC4)c3)COC2=O)ccc1O (some centres unmarked) [Compound 43], the inhibition at 5 µM (naive CD4+ T-cells; Mus musculus, T-cell, @5 μM) was > 70%.
In the case of COc1ccc(C2CNC(=O)C2)cc1OC1CCCC1 (centres unmarked) [Rolipram, reference compound], the inhibition at 12.5 µM ([1]; at 12.5 μM, positive control) was 85%, the “effect on proliferative ability / cell cycle of K-562 cells” value [2] was “failed to have any effect” and the IC50 [2] was > 50 µM. The “inhibition of T-cell populations” value (naive CD4+ T-cells; all T-cell populations, control phosphodiesterase IV inhibitor) was “uniformly inhibitory”.
